Patent US10167517B2, “MIPOL1-ETV1 gene rearrangements” (THE REGENTS OF THE UNIVERSITY OF MICHIGAN, priority 2007, dated 2019)

Test system: LNCaP cells
Experiment: Androgen regulation of gene expression by qPCR in LNCaP cells stimulated with R1881
Assay type: cell-based
Conditions: target gene to GAPDH ratio
Text: FIG. 6, a illustrates the tissue specificity of the 4 contiguous genes in the 14q13.3-14q21.1 region which was interrogated in the expo dataset (using Oncomine) and expression (in normalized expression units) is shown for 28 distinct tumor types and prostate cancer. FIG. 6, b and -c illustrate androgen regulation of the contiguous 14q13.3-14q21.1 genes (FIG. 6, b) and ETV1 (FIG. 6, c), as determined by qPCR in LNCaP cells with (+) or without (−) stimulation by the synthetic androgen R1881. Ratios of target gene to GAPDH (mean (n=4)+S.E.) are shown. FIG. 6, d illustrates that LNCaP and its androgen insensitive derivative, C4-2B, were profiled using a microarray (Agilent Whole Genome Microarrays), in which the top ten most differentially expressed features (LNCaP/C4-2B) are shown. FIG. 6, e-g illustrate qPCR results that show decreased expression of androgen regulated genes in C4-2B compared to LNCaP, for markers ETV1 (FIG. 6, e) and PSA (FIG. 6, f), and the 4 contiguous transcripts at 14q13.3-14q21.1 (FIG. 6, g).
Additional prostate cancer cell lines were tested to screen for ERG and ETV1 expression by quantitative PCR (qPCR), to identify additional genetic rearrangements. The following cells were tested: an immortalized benign prostate epithelial cell line (RWPE) and 8 prostate cancer cell lines (MDA-PCa 2B, LNCaP, VCaP, LAPC4, 22Rv1, NCI-H660, PC3 and DU145). Quantitative PCR (QPCR) was performed by using the oligonucleotide primers shown in Table 1 (“Fusion QPCR” and “Androgen QPCR” sections) with standard laboratory procedures and reagents (Power SYBR Green Mastermix and 7300 Real Time PCR system, Applied Biosystems, Foster City, Calif.). All oligonucleotide primers were synthesized by standard methods (performed by Integrated DNA Technologies, Coralville, Iowa). HMBS and GAPDHS, and PSA6 primers were as described previously (Vandesompele et al., Genome Biol. 3:RESEARCH0034 (2002); Specht et al., Am J. Pathol. 158: 419 (2001)). Androgen stimulation reactions were performed in quadruplicate, and all other reactions were performed in duplicate.

Structure (SMILES): C[C@]1(O)CC[C@H]2[C@@H]3CCC4=CC(=O)CCC4=C3C=C[C@@]21C [R1881]
- expression of ETV1 following R1881 stimulation (with vs without R1881, p=0.0004): 1.8 fold
- expression of SLC25A21 following R1881 stimulation (with vs without R1881, p=0.008): 0.75 fold
- expression of FOXA1 following R1881 stimulation (with vs without R1881, p=0.05): 1.3 fold
- expression of MIPOL1 following R1881 stimulation (with vs without R1881, p=0.08): 1.2 fold
- expression of TTC6 following R1881 stimulation (with vs without R1881, p=0.10): 0.70 fold
